From paper PMC7265341, “Quantifying CDK inhibitor selectivity in live cells” (Nature Communications, 2020)
Where “and” joins values, the source holds several entries; their conditions need not be identical. Equal entries are not always repeated.

Target: CDK6 (Homo sapiens, UniProt Q00534)
Assay: Intracellular residence time by cellular washout, CDK6;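 further: NanoBRET cellular washout in live cells: compound preincubated 2 h at 37 °C, then removed, energy transfer probe association tracked over time versus DMSO vehicle, rising BRET indicating target release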
Format: binding
Details: Panel B

CDK6, sequence (Q00534 whole entry): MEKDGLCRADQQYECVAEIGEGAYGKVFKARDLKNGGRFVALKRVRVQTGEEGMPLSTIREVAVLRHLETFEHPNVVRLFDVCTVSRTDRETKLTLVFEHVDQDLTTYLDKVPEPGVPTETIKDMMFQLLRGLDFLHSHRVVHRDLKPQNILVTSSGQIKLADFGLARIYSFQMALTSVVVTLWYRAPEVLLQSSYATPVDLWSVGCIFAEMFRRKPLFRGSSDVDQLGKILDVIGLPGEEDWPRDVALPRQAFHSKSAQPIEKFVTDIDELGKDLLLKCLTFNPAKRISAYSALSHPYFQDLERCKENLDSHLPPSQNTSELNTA
CDK6, sequence (P24385 whole entry partner): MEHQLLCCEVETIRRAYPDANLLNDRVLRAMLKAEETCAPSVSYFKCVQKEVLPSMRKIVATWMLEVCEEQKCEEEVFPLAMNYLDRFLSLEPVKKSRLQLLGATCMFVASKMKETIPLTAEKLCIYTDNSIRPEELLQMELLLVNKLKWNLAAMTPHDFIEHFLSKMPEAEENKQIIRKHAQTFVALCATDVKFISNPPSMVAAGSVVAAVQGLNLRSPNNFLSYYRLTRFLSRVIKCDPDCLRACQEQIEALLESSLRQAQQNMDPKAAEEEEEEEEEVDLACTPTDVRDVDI

COCCN1CCN(Cc2ccc(-c3n[nH]c4c3C(=O)c3c(NC(=O)NN5CCOCC5)cccc3-4)cc2)CC1 [RGB286638]
CDK6 occupancy (%) over time after compound washout (Time (Min) 0): 82.1951 and 85.1351 and 80.5402 | CDK6 occupancy (%) over time after compound washout (Time (Min) 2.97013): 79.5935 and 83.3333 and 77.8966 | CDK6 occupancy (%) over time after compound washout (Time (Min) 5.97045): 77.3984 and 80.6306 and 74.3678 | CDK6 occupancy (%) over time after compound washout (Time (Min) 8.97078): 75.7724 and 78.2883 and 76.8161 | CDK6 occupancy (%) over time after compound washout (Time (Min) 11.9714): 73.9024 and 76.5766 and 70.3448 | CDK6 occupancy (%) over time after compound washout (Time (Min) 14.9718): 72.7642 and 74.3243 and 69.1954 | CDK6 occupancy (%) over time after compound washout (Time (Min) 17.9723): 71.5447 and 72.4324 and 67.4713 | CDK6 occupancy (%) over time after compound washout (Time (Min) 20.9723): 70.4878 and 71.2613 and 68.046 | CDK6 occupancy (%) over time after compound washout (Time (Min) 23.9731): 69.0244 and 70.3604 and 68.6207 | CDK6 occupancy (%) over time after compound washout (Time (Min) 26.9737): 68.8618 and 68.5586 and 67.4713 | CDK6 occupancy (%) over time after compound washout (Time (Min) 29.9742): 67.3171 and 67.8378 and 66.8966 | CDK6 occupancy (%) over time after compound washout (Time (Min) 32.9743, listed as RGB-286638): 67.6423 and 66.9369 and 67.1264 | CDK6 occupancy (%) over time after compound washout (Time (Min) 35.9749): 67.2358 and 66.5766 and 66.0919 | CDK6 occupancy (%) over time after compound washout (Time (Min) 38.9753): 66.8293 | CDK6 occupancy (%) over time after compound washout (Time (Min) 236.996): 66.1789 and 64.7748 and 56.7816 | CDK6 occupancy (%) over time after compound washout (Time (Min) 239.996): 65.6911 and 64.3243 and 56.5517 | CDK6 occupancy (%) over time after compound washout (Time (Min) 242.996): 66.4228 and 63.0631 and 56.3218 | CDK6 occupancy (%) over time after compound washout (Time (Min) 245.996): 65.6911 and 63.5135 and 59.5402 | CDK6 occupancy (%) over time after compound washout (Time (Min) 248.996): 65.6911 and 63.0631 and 59.5402 | CDK6 occupancy (%) over time after compound washout (Time (Min) 251.996): 65.7724 and 63.1531 and 61.6092 | CDK6 occupancy (%) over time after compound washout (Time (Min) 254.996): 65.8537 and 64.3243 and 54.7126 | CDK6 occupancy (%) over time after compound washout (Time (Min) 257.996): 64.9594 and 63.3333 and 57.7011 | CDK6 occupancy (%) over time after compound washout (Time (Min) 260.996): 65.1219 and 63.8739 and 51.954 | CDK6 occupancy (%) over time after compound washout (Time (Min) 263.996): 63.9024 and 63.4234 and 57.1264 | CDK6 occupancy (%) over time after compound washout (Time (Min) 266.996, listed as RGB-286638): 65.5285 and 63.1531 and 57.4713 | CDK6 occupancy (%) over time after compound washout (Time (Min) 269.996): 64.7968 and 62.5225 and 59.6552 | CDK6 occupancy (%) over time after compound washout (Time (Min) 272.996): 65.8537 and 62.5225 and 60.3448 | CDK6 occupancy (%) over time after compound washout (Time (Min) 275.996): 64.3902 and 62.0721 and 53.3333 | CDK6 occupancy (%) over time after compound washout (Time (Min) 278.996): 65.2032 and 62.6126 and 63.7931 | CDK6 occupancy (%) over time after compound washout (Time (Min) 281.996): 64.8781 and 62.0721 and 57.7011 | CDK6 occupancy (%) over time after compound washout (Time (Min) 284.996): 65.7724 and 63.3333 and 62.8736 | CDK6 occupancy (%) over time after compound washout (Time (Min) 287.996): 63.5772 and 62.5225 and 61.3793 | CDK6 occupancy (%) over time after compound washout (Time (Min) 290.996): 62.6016 and 62.5225 and 59.8851 | CDK6 occupancy (%) over time after compound washout (Time (Min) 293.996): 64.5529 and 62.8829 and 61.8391
